# Assay results from ChEMBL document CHEMBL5291721, “A preclinical secondary pharmacology resource illuminates target-adverse drug reaction associations of marketed drugs” (Nat Commun, 2023).
# What was measured:
# [1] = molecular target: 5-hydroxytryptamine receptor 2B (Homo sapiens, UniProt P41595)
# [2] = molecular target: T1, Muscarinic acetylcholine receptor M2 (Homo sapiens, UniProt P08172)
# T1 sequence (P08172 whole entry): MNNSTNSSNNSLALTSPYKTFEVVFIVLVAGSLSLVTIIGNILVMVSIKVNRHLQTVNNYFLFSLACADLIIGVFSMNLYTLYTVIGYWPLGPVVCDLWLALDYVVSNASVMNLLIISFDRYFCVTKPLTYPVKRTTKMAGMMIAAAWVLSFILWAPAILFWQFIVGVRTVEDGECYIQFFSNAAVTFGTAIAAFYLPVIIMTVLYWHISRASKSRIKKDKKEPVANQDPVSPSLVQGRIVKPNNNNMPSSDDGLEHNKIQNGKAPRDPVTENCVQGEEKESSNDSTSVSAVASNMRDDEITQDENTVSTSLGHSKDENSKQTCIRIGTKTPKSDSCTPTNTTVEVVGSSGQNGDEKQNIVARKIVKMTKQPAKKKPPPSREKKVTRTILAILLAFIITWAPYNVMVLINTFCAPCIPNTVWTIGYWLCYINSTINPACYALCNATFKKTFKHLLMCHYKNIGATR
# [3] = molecular target: T2, 5-hydroxytryptamine receptor 1A (Homo sapiens, UniProt P08908)
# T2 sequence (P08908 whole entry): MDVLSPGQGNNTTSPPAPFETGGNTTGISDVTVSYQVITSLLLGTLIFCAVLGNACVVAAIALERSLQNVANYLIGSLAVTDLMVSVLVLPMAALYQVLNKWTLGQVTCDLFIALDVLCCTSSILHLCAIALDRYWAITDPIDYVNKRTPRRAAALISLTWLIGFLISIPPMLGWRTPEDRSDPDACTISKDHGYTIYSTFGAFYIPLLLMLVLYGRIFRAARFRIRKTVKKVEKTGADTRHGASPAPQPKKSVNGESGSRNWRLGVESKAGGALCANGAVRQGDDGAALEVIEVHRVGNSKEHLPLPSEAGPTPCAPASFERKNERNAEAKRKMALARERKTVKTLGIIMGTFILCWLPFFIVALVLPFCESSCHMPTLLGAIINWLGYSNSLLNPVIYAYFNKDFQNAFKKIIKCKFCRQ
# [4] = molecular target: T3, Peroxisome proliferator-activated receptor gamma (Homo sapiens, UniProt P37231); type: functional
# T3 sequence (P37231 whole entry): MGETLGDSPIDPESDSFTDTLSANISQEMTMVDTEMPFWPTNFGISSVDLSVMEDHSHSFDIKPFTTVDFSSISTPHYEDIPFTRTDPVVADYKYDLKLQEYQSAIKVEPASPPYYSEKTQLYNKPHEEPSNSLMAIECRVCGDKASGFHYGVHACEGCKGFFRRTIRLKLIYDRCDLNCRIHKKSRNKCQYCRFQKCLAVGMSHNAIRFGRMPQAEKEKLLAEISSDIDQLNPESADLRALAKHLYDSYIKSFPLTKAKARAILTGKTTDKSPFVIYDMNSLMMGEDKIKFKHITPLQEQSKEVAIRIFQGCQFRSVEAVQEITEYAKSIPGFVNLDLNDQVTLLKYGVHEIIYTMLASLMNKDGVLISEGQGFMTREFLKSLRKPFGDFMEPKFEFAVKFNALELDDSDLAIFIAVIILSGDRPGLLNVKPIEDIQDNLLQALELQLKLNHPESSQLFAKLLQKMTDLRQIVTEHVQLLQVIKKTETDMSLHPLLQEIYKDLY
# [5] = molecular target: Beta-2 adrenergic receptor (Homo sapiens, UniProt P07550)
# Beta-2 adrenergic receptor, sequence (P07550 whole entry): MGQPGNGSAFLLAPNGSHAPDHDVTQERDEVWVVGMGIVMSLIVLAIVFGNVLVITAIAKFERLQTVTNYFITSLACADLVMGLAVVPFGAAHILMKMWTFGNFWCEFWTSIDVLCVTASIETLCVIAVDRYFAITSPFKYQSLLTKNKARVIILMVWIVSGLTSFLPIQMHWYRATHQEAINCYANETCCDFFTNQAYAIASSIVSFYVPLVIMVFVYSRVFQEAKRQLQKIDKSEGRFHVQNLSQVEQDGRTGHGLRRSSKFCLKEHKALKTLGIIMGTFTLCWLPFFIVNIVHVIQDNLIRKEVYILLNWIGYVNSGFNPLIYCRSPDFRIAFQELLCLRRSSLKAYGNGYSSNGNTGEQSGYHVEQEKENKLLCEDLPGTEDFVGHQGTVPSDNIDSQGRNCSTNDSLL
# Glucocorticoid receptor [6] = molecular target: T4, Glucocorticoid receptor (Homo sapiens, UniProt P04150); type: functional
# T4 sequence (P04150 whole entry): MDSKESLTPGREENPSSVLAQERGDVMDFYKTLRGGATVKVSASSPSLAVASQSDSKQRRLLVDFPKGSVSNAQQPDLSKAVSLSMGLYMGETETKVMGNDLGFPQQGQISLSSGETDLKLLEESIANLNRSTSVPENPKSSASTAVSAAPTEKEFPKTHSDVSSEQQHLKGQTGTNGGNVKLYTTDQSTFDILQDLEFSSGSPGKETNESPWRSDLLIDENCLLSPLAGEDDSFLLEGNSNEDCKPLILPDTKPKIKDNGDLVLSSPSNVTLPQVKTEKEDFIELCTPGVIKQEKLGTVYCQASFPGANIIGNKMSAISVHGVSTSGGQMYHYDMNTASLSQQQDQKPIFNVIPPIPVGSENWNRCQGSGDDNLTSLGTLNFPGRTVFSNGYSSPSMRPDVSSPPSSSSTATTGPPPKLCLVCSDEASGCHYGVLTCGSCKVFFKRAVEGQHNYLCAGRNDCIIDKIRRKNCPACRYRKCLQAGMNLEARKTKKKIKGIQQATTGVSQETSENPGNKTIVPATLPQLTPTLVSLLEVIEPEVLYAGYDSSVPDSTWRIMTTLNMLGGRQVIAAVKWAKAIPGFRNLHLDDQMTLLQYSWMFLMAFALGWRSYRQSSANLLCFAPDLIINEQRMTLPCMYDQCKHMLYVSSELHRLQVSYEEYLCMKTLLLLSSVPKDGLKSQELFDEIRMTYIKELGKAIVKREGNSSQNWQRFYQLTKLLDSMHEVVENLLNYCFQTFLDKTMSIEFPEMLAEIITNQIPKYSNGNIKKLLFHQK
# [7] = molecular target: Voltage-dependent N-type calcium channel subunit alpha-1B (Rattus norvegicus, UniProt Q02294); type: functional
# Voltage-dependent N-type calcium channel subunit alpha-1B, sequence (Q02294 whole entry): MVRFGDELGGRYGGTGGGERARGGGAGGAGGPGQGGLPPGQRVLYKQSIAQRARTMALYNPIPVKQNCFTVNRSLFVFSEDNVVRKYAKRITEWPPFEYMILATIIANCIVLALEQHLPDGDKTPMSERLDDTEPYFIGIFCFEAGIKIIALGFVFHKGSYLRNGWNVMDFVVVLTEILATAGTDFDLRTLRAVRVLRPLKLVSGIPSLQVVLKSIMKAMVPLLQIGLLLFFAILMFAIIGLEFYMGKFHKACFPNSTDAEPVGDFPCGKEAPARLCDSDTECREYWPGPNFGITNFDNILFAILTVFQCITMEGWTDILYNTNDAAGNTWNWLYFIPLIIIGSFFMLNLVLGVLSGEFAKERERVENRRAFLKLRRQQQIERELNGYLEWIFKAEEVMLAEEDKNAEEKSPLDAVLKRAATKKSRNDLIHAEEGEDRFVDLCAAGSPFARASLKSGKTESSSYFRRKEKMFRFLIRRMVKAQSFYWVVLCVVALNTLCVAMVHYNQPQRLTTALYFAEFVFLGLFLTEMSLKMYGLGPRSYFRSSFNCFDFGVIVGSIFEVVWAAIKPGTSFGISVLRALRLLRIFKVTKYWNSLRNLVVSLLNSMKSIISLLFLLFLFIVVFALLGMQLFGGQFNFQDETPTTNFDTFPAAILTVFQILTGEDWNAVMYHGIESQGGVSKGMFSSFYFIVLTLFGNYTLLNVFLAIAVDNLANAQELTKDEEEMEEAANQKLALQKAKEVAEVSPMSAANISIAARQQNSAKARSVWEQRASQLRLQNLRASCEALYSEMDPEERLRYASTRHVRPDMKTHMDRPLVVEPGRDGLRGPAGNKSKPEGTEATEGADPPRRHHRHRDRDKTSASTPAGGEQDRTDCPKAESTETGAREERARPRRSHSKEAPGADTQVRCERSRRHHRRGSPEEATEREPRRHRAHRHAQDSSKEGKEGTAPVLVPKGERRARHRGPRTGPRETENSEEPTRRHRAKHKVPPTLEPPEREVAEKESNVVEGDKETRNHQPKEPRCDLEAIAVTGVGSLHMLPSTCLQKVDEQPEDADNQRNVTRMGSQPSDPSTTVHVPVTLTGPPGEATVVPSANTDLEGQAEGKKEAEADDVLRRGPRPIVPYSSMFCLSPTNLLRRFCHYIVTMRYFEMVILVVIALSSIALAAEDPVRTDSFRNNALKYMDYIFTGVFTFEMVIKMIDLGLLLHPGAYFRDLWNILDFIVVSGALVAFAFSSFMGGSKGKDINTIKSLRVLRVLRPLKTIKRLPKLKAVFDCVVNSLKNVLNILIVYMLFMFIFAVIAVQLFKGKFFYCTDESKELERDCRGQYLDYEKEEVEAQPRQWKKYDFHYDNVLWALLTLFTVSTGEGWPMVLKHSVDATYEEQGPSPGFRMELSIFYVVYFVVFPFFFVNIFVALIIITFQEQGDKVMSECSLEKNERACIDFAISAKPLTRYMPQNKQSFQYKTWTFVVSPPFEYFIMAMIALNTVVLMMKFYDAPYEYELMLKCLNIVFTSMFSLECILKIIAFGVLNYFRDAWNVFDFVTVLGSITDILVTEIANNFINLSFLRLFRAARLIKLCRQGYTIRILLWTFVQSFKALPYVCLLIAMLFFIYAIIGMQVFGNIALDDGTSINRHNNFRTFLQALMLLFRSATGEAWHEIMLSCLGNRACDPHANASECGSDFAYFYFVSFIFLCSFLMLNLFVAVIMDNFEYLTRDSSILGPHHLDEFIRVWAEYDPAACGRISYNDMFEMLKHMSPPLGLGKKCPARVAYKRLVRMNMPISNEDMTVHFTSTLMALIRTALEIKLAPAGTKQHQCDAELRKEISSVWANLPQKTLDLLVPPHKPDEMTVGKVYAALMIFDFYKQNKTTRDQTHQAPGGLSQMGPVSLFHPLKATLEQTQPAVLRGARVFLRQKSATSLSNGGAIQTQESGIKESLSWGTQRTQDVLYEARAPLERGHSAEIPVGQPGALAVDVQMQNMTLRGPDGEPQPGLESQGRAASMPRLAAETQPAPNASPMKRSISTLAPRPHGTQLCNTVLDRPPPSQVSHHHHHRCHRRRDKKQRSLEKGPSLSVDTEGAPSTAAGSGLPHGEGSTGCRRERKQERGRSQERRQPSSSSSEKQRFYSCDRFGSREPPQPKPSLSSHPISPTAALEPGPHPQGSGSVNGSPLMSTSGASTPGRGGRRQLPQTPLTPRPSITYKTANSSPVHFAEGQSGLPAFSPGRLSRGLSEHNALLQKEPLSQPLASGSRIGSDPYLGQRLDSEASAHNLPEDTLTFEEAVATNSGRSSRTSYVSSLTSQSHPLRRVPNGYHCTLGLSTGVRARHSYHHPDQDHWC
# Glucocorticoid receptor [8] = molecular target: T4, Glucocorticoid receptor; type: functional; remark: listed apart in the source
# [9] = molecular target: T5, Alpha-2B adrenergic receptor (Homo sapiens, UniProt P18089)
# T5 sequence (P18089 whole entry): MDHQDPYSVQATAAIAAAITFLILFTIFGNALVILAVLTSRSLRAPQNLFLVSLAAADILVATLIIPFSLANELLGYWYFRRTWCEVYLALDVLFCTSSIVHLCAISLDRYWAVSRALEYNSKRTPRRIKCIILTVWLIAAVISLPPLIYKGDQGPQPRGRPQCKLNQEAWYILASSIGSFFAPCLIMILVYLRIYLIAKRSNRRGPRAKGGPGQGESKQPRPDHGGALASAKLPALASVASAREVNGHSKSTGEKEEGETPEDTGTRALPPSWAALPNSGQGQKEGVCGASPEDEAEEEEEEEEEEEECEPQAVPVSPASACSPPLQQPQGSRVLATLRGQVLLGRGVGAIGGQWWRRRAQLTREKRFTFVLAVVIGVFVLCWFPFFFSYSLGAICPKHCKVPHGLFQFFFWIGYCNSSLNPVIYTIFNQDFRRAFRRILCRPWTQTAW
# Also: assay procedure not described here.
# 5-hydroxytryptamine receptor 2B, sequence (P41595 whole entry): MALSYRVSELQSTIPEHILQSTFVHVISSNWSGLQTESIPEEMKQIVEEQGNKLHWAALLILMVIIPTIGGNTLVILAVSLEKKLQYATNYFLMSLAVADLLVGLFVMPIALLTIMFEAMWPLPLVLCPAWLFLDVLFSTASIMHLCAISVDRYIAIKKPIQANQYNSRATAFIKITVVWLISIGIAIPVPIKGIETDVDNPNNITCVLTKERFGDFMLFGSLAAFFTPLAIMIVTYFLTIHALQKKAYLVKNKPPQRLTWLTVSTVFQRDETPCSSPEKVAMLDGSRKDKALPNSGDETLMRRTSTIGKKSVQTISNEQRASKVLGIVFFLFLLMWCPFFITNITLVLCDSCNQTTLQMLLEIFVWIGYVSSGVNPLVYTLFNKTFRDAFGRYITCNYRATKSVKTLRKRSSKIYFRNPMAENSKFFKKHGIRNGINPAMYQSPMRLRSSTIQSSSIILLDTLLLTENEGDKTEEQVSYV
Structure (SMILES),AC50 [1],AC50 [2],AC50 [3],AC50 [4],AC50 [5],AC50 (Glucocorticoid receptor [6]),AC50 [7],AC50 (Glucocorticoid receptor [8]),AC50 [9]
COC(=O)[C@H](c1ccccc1Cl)N1CCc2sccc2C1 [CLOPIDOGREL],> 10 µM,> 10 µM,> 10 µM,> 30 µM,> 30 µM,> 30 µM,> 10 µM,> 30 µM,–
C#Cc1cccc(Nc2ncnc3cc(OCCOC)c(OCCOC)cc23)c1 [ERLOTINIB],–,–,–,> 30 µM,–,> 30 µM,–,> 30 µM,> 30 µM
C[C@H]1Oc2cc(cnc2N)-c2c(nn(C)c2C#N)CN(C)C(=O)c2ccc(F)cc21 [LORLATINIB],–,–,–,> 30 µM,–,> 30 µM,–,> 30 µM,> 30 µM
O=C1NC(=O)C(c2ccccc2)(c2ccccc2)N1 [PHENYTOIN],–,–,> 10 µM,> 30 µM,> 10 µM,> 30 µM,> 10 µM,> 30 µM,–
CC(C)C[C@H](CN)CC(=O)O [PREGABALIN],–,–,> 10 µM,> 30 µM,> 30 µM,> 30 µM,> 10 µM,> 30 µM,> 30 µM
CCOc1cc(CC(=O)N[C@@H](CC(C)C)c2ccccc2N2CCCCC2)ccc1C(=O)O [REPAGLINIDE],–,–,–,> 30 µM,–,> 30 µM,–,> 30 µM,> 30 µM
CCCN(CCC)CCc1cccc2c1CC(=O)N2 [ROPINIROLE],27 µM,12.1 µM,8.15 µM,> 30 µM,> 10 µM,> 30 µM,> 10 µM,> 30 µM,–
CCCN(CCc1cccs1)[C@H]1CCc2c(O)cccc2C1 [ROTIGOTINE],–,–,–,> 30 µM,–,> 30 µM,–,> 30 µM,0.13 µM
CC(=O)S[C@@H]1CC2=CC(=O)CC[C@]2(C)[C@H]2CC[C@@]3(C)[C@@H](CC[C@@]34CCC(=O)O4)[C@H]12 [SPIRONOLACTONE],> 10 µM,> 10 µM,> 10 µM,> 30 µM,> 10 µM,5.5 µM,> 10 µM,> 30 µM,–
